Results from patent US20260041649A1, “ANTI-INFLAMMATORY AGENT” (WATANABE OYSTER LABORATORY, CO., LTD., priority 2023, published 2026).

Experiments:
[1] = tested on: mouse macrophage RAW264.7 cells; assay: Measurement of cytokine production (ELISA); type: cell-based; settings: 5 hours
Protocol: RAW264.7 cells (1×10^5/ml per well in a 24-well plate) were cultured for 3 days in a DMEM culture medium without DHMBA until they reached subconfluence. After that, the cell culture was continued for another 5 hours in the control group (1% ethanol; DHMBA 0 μM as final concentration) and the DHMBA-treated group (0.1, 1, 10, 100, or 1000 μM) with or without LPS (100 ng/ml) in the cell culture medium. After the culture, the culture medium was collected, and the cytokine concentrations of TNF-α (FIG. 7A), IL-6 (FIG. 7B), […] (FIG. 7C), and PGE2 (FIG. 7D) in the culture medium were measured using an ELISA Kit. Data are presented as the mean±SD from a total of 8 wells in two plates using different cell preparations. *: Significant difference (P<0.001) versus the controls without DHMBA and LPS (white bars). #: Significant difference (P<0.001) versus the controls with LPS but without DHMBA. Statistical analysis was performed using 1-way ANOVA with Tukey-Kramer post-test.
RAW264.7 cells (1×10^5/ml per well) were cultured in a DMEM culture medium containing 10% FBS and 1% P/S using a 24-well plate for 3 days until they reached subconfluence. The cells were then cultured for another 5 hours in the control group (1% ethanol; DHMBA 0 μM as final concentration) and in the DHMBA-treated group (0.1, 1, 10, 100, or 1000 μM) with or without LPS (100 ng/ml). After the culture, the culture media were collected to measure cytokines. Then, the cells were detached from each culture dish to measure the cell number by the method described in “Cell count”. The concentrations of TNF-α, IL-6, IL-⊕, and PGE2 in the culture medium were measured using ELISA kits. For the measurement, kits for TNF-α (cat. no. BM), KHC301) and IL-16 (cat. no. BMS6002) were obtained from ThermoFisher Scientific (Waltham, MA, USA), and kits for IL-6 (cat. no. 583371) and PGE2 (cat. no. 514010) were purchased from Cayman Chemical (Ann Arbor, MI, USA). The amount of each cytokine produced was expressed as pictograms (pg) secreted into the culture medium (ml).

[2] = tested on: mouse macrophage RAW264.7 cells; assay: Cell number after 5 hours incubation with or without LPS; type: cell-based; settings: DHMBA 0.1-1000 μM
Protocol: RAW264.7 cells (1×10^5/ml/well) were cultured in a DMEM culture medium containing 10% FBS, 1% P/S, and 1% fungizone. Cells were treated with a vehicle (1% ethanol; DHMBA 0 μM as final concentration) or DHMBA (0.1, 1, 10, 100, or 1000 μM) and incubated for 5 hours (FIG. 6A).
Cells (1×10^5/ml per well) were cultured for 3 days in a DMEM culture medium containing 10% FBS, 1% P/S, and 1% fungizone in the presence of LPS (100 ng/ml in all cultures). Cells were treated with a vehicle (1% ethanol; DHMBA 0 μM as final concentration) or DHMBA (0.1, 1, 10, 100, or 1000 μM) and incubated for 5 hours (FIG. 6B).
After the culture, the number of cells attached to the dish was counted. Data are presented as the mean±SD from a total of 8 wells of two plates using different cell preparations. […] No significant changes were observed by […] LPS treatment compared to the controls (gray bars). Statistical analysis was performed using 1-way ANOVA with Tukey-Kramer post-test.
RAW264.7 cells (1×10^5/ml per well) were cultured in a DMEM culture medium containing 10% FBS and 1% P/S using a 24-well plate for 3 days until they reached subconfluence. […] The concentrations of TNF-α, IL-6, IL-⊕, and PGE2 in the culture medium were measured using ELISA kits. […] The amount of each cytokine produced was expressed as pictograms (pg) secreted into the culture medium (ml).

[3] = LPS 100 ng/ml, DHMBA 1, 10, 100 or 1000 μM

COc1c(O)cc(CO)cc1O [DHMBA, 3,5-dihydroxy-4-methoxybenzyl alcohol]
remained unchanged: number of RAW264.7 cells ([2]; LPS 100 ng/ml) | number of RAW264.7 cells ([2]; absence of LPS)
suppressed: LPS-increased production of IL-1β [1, 3] | LPS-increased production of IL-6 [1, 3] | LPS-increased production of PGE2 [1, 3] | LPS-increased production of TNF-α [1, 3] | production of IL-6 ([1]; absence of LPS, DHMBA 100 or 1000 μM)
